Measurements taken from ChEMBL document CHEMBL1141234, “Synthesis and SAR of highly potent dual 5-HT1A and 5-HT1B antagonists as potential antidepressant drugs” (Bioorg Med Chem Lett, 2005).
Active and inactive are the calls of the source. The calls are words filed in the database; no cut-off is given here.

Legend:
[1] = molecular target: T1, 5-hydroxytryptamine receptor 1A (Homo sapiens) (UniProt P08908); test: Functional activity in [35S]GTP-gamma-S assay for 5HT1A receptor; settings: filed as antagonist
T1 sequence (whole entry): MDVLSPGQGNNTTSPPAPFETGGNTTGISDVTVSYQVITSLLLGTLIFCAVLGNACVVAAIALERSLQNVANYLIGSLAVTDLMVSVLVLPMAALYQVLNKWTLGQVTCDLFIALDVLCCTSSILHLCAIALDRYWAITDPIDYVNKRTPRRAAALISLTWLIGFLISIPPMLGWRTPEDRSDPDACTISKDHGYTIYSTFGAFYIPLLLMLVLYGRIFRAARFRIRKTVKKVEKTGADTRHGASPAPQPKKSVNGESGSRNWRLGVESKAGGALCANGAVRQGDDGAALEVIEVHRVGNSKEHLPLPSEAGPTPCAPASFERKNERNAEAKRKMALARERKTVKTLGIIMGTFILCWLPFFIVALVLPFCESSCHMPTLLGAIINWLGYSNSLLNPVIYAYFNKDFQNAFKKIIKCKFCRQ

[2] = Oral bioavailability in rat at 10 mg/kg, po; type: ADME, organism-based; settings: in vivo
[3] = molecular target: T2, 5-hydroxytryptamine receptor 1B (Homo sapiens, UniProt P28222); test: Intrinsic activity for 5HT1B receptor in FLIPR assay; type: functional
T2 sequence (P28222 whole entry): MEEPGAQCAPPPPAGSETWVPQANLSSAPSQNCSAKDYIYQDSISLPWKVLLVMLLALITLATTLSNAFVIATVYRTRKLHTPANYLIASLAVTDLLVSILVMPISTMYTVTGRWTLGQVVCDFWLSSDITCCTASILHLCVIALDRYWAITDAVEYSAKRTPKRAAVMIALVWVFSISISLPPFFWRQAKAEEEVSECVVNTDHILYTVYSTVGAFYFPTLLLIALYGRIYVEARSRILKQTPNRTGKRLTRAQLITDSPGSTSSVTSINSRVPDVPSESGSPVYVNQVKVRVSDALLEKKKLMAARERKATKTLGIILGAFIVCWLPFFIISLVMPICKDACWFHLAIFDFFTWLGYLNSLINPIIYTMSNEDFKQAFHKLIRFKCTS

[4] = molecular target: T3, Adrenergic receptor alpha-1 (Homo sapiens, UniProt P35348+P25100+P35368); test: Inhibitory activity against Adrenergic alpha-1 receptor; type: protein assay
T3 sequence (P35348 whole entry): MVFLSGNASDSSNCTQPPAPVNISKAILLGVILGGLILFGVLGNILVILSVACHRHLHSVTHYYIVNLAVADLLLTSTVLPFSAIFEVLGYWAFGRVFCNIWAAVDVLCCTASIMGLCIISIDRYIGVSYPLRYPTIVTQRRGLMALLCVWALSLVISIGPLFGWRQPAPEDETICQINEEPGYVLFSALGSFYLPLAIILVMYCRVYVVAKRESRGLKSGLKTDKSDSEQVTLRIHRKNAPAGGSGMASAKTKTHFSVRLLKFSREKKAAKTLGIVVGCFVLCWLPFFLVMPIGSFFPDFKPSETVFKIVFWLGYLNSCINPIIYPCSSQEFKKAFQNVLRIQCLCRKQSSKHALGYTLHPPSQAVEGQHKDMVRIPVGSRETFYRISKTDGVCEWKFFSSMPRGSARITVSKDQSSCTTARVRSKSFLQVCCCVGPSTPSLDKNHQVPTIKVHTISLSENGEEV
T3 sequence (P25100 whole entry): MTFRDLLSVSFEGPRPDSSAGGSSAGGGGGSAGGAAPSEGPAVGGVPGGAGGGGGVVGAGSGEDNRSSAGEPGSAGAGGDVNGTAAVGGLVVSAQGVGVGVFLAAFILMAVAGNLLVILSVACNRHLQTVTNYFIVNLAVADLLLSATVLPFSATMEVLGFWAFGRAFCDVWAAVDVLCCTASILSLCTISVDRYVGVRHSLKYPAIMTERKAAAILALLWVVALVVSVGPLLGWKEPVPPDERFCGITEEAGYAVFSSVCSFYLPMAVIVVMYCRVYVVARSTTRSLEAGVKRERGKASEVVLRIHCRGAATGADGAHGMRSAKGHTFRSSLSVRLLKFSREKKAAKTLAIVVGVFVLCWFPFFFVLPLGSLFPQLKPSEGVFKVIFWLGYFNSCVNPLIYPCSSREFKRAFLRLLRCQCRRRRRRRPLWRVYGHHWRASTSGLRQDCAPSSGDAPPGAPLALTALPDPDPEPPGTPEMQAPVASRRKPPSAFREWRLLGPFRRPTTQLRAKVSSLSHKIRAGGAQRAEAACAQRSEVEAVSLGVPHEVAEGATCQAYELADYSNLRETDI
T3 sequence (P35368 whole entry): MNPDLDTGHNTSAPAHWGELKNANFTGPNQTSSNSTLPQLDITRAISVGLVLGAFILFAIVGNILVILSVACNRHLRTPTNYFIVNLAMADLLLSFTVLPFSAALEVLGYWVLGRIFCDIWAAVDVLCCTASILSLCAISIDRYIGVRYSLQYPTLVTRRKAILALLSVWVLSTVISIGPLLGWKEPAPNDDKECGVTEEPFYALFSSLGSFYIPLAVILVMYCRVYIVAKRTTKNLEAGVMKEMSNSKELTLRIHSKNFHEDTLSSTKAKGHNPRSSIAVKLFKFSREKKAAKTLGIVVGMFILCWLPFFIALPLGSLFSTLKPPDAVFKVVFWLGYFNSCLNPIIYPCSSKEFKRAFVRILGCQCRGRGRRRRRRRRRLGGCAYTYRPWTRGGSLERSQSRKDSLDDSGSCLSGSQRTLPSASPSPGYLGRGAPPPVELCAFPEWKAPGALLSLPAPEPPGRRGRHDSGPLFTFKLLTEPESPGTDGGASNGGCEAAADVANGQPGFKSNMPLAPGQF

[5] = molecular target: Sodium-dependent serotonin transporter (Homo sapiens) (UniProt P31645); test: Inhibitory activity against SERT upto 10 uM
Sodium-dependent serotonin transporter (Homo sapiens), sequence (P31645 whole entry, looked up): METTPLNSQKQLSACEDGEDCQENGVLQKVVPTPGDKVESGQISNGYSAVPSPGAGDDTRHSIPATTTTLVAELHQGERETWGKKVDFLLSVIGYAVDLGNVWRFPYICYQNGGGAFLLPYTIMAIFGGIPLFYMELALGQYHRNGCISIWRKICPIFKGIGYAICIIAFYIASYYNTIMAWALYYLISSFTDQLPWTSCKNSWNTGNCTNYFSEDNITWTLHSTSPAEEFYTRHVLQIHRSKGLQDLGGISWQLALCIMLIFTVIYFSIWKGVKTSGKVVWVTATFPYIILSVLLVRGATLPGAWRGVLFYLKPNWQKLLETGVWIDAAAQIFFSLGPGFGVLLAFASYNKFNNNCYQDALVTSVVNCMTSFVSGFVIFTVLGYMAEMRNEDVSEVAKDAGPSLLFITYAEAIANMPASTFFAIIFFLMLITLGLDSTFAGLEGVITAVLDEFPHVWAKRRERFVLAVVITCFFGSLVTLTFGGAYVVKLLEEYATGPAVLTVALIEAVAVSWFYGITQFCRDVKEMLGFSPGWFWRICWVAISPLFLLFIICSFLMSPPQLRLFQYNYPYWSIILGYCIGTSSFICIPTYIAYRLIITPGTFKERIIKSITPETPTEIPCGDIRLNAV

[6] = molecular target: T4, 5-hydroxytryptamine receptor 1A (Rattus norvegicus, UniProt P19327); test: Binding affinity for rat 5HT1A receptor
T4 sequence (P19327 whole entry): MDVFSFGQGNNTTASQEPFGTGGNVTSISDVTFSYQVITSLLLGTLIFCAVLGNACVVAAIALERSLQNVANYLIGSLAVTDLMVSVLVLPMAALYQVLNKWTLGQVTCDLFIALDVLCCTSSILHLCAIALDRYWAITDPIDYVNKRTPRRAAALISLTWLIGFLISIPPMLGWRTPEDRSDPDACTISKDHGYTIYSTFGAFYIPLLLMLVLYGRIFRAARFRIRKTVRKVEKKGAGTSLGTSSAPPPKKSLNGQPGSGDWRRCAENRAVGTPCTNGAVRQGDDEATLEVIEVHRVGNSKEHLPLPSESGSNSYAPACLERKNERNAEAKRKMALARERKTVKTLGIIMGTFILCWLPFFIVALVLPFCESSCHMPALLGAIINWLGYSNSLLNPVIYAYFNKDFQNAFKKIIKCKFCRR

[7] = molecular target: 5-hydroxytryptamine receptor 1B (Rattus norvegicus, UniProt P28564); test: Binding affinity for rat 5HT1B receptor
5-hydroxytryptamine receptor 1B (Rattus norvegicus, UniProt P28564), sequence (P28564 whole entry): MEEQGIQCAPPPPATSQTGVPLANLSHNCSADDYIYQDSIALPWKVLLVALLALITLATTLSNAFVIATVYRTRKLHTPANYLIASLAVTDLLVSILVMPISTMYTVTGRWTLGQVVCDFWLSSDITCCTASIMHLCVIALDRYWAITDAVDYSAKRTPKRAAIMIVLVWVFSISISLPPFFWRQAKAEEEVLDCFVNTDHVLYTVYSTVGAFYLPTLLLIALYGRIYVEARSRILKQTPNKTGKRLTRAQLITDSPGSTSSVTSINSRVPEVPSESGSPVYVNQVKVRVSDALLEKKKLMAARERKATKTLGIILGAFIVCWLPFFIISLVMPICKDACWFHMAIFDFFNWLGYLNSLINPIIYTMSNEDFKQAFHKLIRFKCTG

[8] = molecular target: 5-hydroxytryptamine receptor 2A (Homo sapiens, UniProt P28223); test: Inhibitory activity against 5HT2A receptor
5-hydroxytryptamine receptor 2A, sequence (P28223 whole entry): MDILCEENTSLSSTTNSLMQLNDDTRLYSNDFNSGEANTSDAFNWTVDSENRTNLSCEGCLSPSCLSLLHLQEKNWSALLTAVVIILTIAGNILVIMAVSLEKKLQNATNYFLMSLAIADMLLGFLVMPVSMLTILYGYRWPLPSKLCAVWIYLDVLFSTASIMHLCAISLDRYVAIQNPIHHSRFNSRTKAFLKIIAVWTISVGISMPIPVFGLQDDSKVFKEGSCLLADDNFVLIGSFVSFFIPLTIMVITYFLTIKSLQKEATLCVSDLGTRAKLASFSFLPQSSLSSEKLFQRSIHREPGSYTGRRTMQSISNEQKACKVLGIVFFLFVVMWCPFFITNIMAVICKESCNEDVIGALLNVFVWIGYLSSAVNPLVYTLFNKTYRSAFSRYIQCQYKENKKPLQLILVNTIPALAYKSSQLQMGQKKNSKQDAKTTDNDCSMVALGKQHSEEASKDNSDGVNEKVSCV

Rattus norvegicus = species: Rattus norvegicus; test: Electrically stimulated [3H]5-HT release from rat brain cortical slices at 0.1 uM; type: functional, tissue-based
Mus musculus = test: In vivo mouse forced swim test at 30 mg/kg, ip; type: functional, organism-based; parameters: dose 30 mg/kg
[9] = molecular target: T2, 5-hydroxytryptamine receptor 1B; test: Functional activity in FLIPR assay for 5HT1B receptor; settings: filed as antagonist
[10] = molecular target: 5-hydroxytryptamine receptor 5A (Homo sapiens, UniProt P47898); test: Inhibitory activity against 5HT5A receptor
5-hydroxytryptamine receptor 5A, sequence (P47898 whole entry): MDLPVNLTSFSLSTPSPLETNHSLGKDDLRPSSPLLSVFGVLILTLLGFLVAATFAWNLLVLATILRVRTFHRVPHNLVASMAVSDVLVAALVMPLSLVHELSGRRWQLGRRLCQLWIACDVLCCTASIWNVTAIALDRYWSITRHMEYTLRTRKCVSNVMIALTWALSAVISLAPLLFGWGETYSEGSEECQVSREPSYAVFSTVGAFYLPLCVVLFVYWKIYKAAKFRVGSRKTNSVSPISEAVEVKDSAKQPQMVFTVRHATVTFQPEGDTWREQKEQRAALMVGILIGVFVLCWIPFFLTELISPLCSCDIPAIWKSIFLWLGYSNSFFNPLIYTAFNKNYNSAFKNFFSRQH

[11] = molecular target: T2, 5-hydroxytryptamine receptor 1B; test: Inhibitory activity against human recombinant 5HT1B receptor co-expressed with G-protein chimera Gqo5 in HEK293 cells by FLIPR; type: functional, cell-based
[12] = molecular target: Sodium-dependent noradrenaline transporter (Homo sapiens) (UniProt P23975); test: Inhibitory activity against NET upto 10 uM
Sodium-dependent noradrenaline transporter (Homo sapiens), sequence (P23975 whole entry): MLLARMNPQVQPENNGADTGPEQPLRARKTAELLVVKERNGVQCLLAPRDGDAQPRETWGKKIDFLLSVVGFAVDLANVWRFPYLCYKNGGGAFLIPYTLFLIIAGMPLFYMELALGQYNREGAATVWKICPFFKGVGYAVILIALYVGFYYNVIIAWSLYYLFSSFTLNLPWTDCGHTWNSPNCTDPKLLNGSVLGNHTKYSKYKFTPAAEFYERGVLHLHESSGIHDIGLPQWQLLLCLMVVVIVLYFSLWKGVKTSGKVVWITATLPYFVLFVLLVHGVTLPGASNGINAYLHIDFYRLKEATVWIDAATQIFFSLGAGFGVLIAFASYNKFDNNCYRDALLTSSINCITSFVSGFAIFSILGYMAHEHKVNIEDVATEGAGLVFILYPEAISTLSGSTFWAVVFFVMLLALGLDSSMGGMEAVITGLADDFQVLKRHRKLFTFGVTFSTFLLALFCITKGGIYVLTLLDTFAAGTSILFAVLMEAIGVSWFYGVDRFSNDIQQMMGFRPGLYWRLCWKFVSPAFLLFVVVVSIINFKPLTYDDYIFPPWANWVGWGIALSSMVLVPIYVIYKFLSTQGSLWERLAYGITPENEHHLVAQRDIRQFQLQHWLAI

[13] = Ratio of drug level in brain against plasma in rat; type: ADME, organism-based; settings: read-out: BBR

**Q.** What does the source list for `CN1CCc2c(sc3ncn(CCN4CCN(c5cncc6ccccc56)CC4)c(=O)c23)C1`?
**A.** Activity [1]: Antagonist; bioavailability [2]: 11%; Emax [3]: 7%; Ki [4]: 13.7 nM; Activity [5]: inactive; Ki [6]: 16.3 nM; Ki [7]: 33.1 nM; Ki [8]: 180 nM; Activity (Rattus norvegicus): Dose-dependent effect; Activity (Mus musculus): inactive; Activity [9]: Antagonist; Ki [10]: > 10 µM; IC50 [11]: 35 nM; Ki [11]: 2.5 nM; Activity [12]: inactive; Kp [13]: 10.2
